Several values for one entry are separate records, joined by “and”; a condition that tells them apart may be missing. Equal values may be shown once. Read-outs that look alike come from different tables or passages of the source.
Columns and labels:
[1] = Plasma stability, human plasma; format: in vitro ADME
Experimental: Plasma stability was determined using previously published methods (Kerns, E. H., and Di, L. 2008. Drug-like Properties: Concepts, Structure Design and Methods. Oxford UK: Elsevier). Compound (1.0 μM) was incubated at 37° C. in human or mouse plasma (from blood of healthy donors collected on EDTA) diluted to 50% (v/v) with pH 7.4 isotonic phosphate buffer. At time 0 min and 180 min, aliquots were collected, added to acetonitrile to quench the reaction and precipitate plasma proteins. These samples were centrifuged and the supernatant analyzed by the LC/MS/MS method described above for the presence of the parental compound.

[2] = tested on: Fa2N-4 immortalized human hepatocytes; test: Cell viability with ATP-lite (hepatic toxicity); format: cell-based
Experimental: Hepatic toxicity of compounds was determined with Fa2N-4 immortalized human hepatocytes using the ATP-lite 1-step assay (Perkin Elmer). assay according to the manufacturer's instructions. Fa2N-4 cells (XenoTech, Kansas City, Kans.) were seeded at 50,000 cells/well, and incubated with a range of concentrations of the test compound (0.01 μM-50 μM) in MFE support, media for 24 hrs at 37° C., 5% CO2. At the end of the experiment, cell viability was determined by cellular ATP levels using the ATP-lite kit according to the manufacturer's instructions Luminescence was measured on the Infinite M200 plate reader (Tecan US).

[3] = tested on: adrenergic receptors (α1a, α1B, α1D, α2A); test: Panlabs panel, adrenergic receptors; format: binding; settings: @ 10 μM
Text: (§1) However, these activities in in vitro binding assays may not translate into functional modulation of these receptors.

[4] = PK in mouse after iv and ip dose; format: in vivo
[5] = Aqueous solubility, direct UV kinetic solubility method; format: physicochemical
Experimental: The aqueous solubility of the compound was determined using a direct UV kinetic solubility method (Avdeef, A. 2001. Physicochemical profiling (solubility, permeability and charge state). Curr Top Med Chem 1:277-351) in a 96-well format at pH 5.0, 6.2 and 7.4. Compounds (250 μM) were incubated for 18.0h at room temperature to achieve equilibrium, and then filtered to remove any precipitate. The concentration of the compound in solution was measured by UV absorbance (250-498 nm) and compared to the spectra of precipitation-free reference solutions. Spectroscopically pure 1-Propanol (Sigma, St Louis, Mo.) was used as a cosolvent to suppress precipitation in the reference solutions. The solubility of each compound was determined using μSOL Evolution Plus software v3.2 (pION Inc) and is expressed as the concentration (μg/mL) of a solute in a saturated solution

[6] = Metabolic stability in mouse hepatic microsomes; format: in vitro ADME
Experimental: Hepatic metabolic stability was determined using established protocols (Di, L., Kerns, E. H., Hong, Y., Kleintop, T. A., McConnell, O. J., and Huryn, D. M. 2003. Optimization of a higher throughput microsomal stability screening assay for profiling drug discovery candidates. J Biomol Screen 8:453-462). Briefly, the compound (1.0 and 10.0 μM) was preincubated for 10 min at 37° C. in potassium phosphate buffer (pH 7.4) together with 0.5 mg/mL mouse or human hepatic microsomes (Xenotech, Kansas City). The cofactor mixture comprising NADP, G6P, and G6P-DH (BD Biosciences) was added, and aliquots were taken after 0 and 60 min. Samples were analyzed on an Acquity UPLC, coupled with a sample organizer, and interfaced with a triple quadrupole ABI 4000 LC/MS/MS using the methodology described above. The percentage of the compound remaining after a 60 min incubation period was calculated according the following equation: [(area at time 60 min)/(area at time 0 min)]×100%.

signal = test: Panlabs/Ricerca lead profiling panel, signal; format: binding; settings: @ 10 μM
Text: as §1

MOR = biological target: T1, MOR (Homo sapiens, UniProt P35372); test: Panlabs/Ricerca lead profiling panel, MOR; format: binding; settings: @ 10 μM
T1 construct: Panlabs/Ricerca (contract panel)
T1 sequence (P35372 whole entry): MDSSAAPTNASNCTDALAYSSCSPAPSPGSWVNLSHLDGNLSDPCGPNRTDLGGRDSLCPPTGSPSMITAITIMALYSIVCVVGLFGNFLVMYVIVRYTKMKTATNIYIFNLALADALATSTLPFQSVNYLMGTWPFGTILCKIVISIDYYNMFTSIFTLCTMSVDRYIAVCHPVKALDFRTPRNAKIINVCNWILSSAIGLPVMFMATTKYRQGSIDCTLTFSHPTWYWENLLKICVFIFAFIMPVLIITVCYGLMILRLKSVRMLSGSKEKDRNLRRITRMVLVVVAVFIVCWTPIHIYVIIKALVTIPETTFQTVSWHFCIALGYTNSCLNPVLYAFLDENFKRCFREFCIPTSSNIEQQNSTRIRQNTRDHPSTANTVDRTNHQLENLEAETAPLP
Text: as §1

[7] = Plasma protein binding, Rapid Equilibrium Device, mouse plasma; format: in vitro ADME; settings: mouse plasma (EDTA), diluted 1:1 with PBS, read-out: Plasma Protein Binding (% Bound) (converted)
Experimental: The extent of compound bound to plasma proteins was measured using the Rapid Equilibrium Device (Pierce Thermo Scientific, Rockford Ill.). The base plate was rinsed with […] followed by 2× washes with ultrapure water and allowed to dry. Human and mouse plasma (BioChemed Services, Winchester Va.) collected in EDTA was allowed to thaw at room temperature and then warmed to 37° C., and diluted 1:1 (v:v) with 1×PBS, pH 7.4, prior to the assay. The compound (1.0 and 10.0 μM final) was added to the chamber containing 300 μl plasma:PBS. Next, 500 μl of dialysis buffer (1×PBS, pH7.4) was added to the buffer chambers of the inserts. The chambers were covered with sealing tape and incubated at 37° C. on an orbital shaker at 300× rpm for 4 hours. […] Results reported are the mean of each reaction duplicate, normalized to the internal standard, and expressed as a percent compound bound after the incubation time. The amount of compound in the supernatant was determined by LC/MS/MS and the percent of free and bound compounds were calculated with the following formulas: Percent of free parent compound=(amount of compound in receiver chamber/amount of compound in donor chamber)*100.

COc1cc2nc(C3CC3)nc(N3CCN(c4ccccc4OC)CC3)c2cc1OC [Compound 315, 2-cyclopropyl-6,7-dimethoxy-4-(4-(2-methoxyphenyl)piperazin-1-yl)quinazoline]
Plasma Stability (% Remaining at 3 hrs) ([1]; Human): 100%
plasma stability ([1]; species not stated): very high plasma stability
window for toxicity towards human hepatocytes [2]: > 15 fold
CC50 ([2]; 24 hrs, read-out: Toxicity Towards Fa2N-4 Immortalized Human Hepatocytes LC50): 30 µM and 29.6 µM
activity across adrenergic receptors α1a, α1B, α1D, α2A [3]: 63-100%
Vdss ([4]; 2 mg/kg iv dose): 6.22 L/kg
t1/2 ([4]; 2 mg/kg iv dose): 1.93 h
AUC ([4]; 10 mg/kg ip dose): 1223 ng·h/mL
Cmax ([4]; 10 mg/kg ip dose): 763 ng/mL
t1/2 ([4]; 10 mg/kg ip dose): 2.58 h
PK properties in mouse ([4]; in vivo): modest PK properties
solubility at 18 h ([5]; 1x PBS, pH 7.4, aqueous buffer, kinetic from dmso stock, read-out: Aqueous Solubility in 1x PBS, pH 7.4): 0.45 µg/mL
Aqueous Solubility in 1x PBS, pH 7.4 ([5]; 1x PBS, pH 7.4, molar units): 1.1 μM
Aqueous Solubility in pION's buffer ([5]; pH 6.2): 9.0 μg/mL
solubility at 18 h ([5]; pH 7.4, molar units, read-out: Aqueous Solubility in pION's buffer): 1.2 µM
solubility at 18 h ([5]; pION's buffer, aqueous buffer, kinetic from dmso stock, pH 5.0, molar units, read-out: Aqueous Solubility in pION's buffer): > 297 µM
solubility at 18 h ([5]; pION's buffer, aqueous buffer, kinetic from dmso stock, pH 5.0, read-out: Aqueous Solubility in pION's buffer): > 125 µg/mL
solubility at 18 h ([5]; pION's buffer, pH 7.4, aqueous buffer, kinetic from dmso stock, read-out: Aqueous Solubility in pION's buffer): 0.52 µg/mL
Hepatic Microsome Stability (% Remaining at 1 hr) [6]: 0.16%
metabolism in vitro with liver homogenates [6]: metabolized rapidly
activity at signal (signal): 69%
activity at MOR (MOR): 86%
fraction unbound at 4 h, 1 μM ([7]; pH 7.4, 1 μM): 0.0033
fraction unbound at 4 h, 10 μM ([7]; pH 7.4, 10 μM): 0.0116
